Data on 12 molecules can be found in ChEMBL document CHEMBL3596110, “Design of glycosyltransferase inhibitors targeting human O-GlcNAc transferase (OGT)” (Medchemcomm, 2014).

Activity calls are given as the source filed them. The rule behind the calls is not given here.

The target in data set [1] is T1, UDP-N-acetylglucosamine--peptide N-acetylglucosaminyltransferase 110 kDa subunit (Homo sapiens, UniProt O15294).
T1 sequence (O15294 whole entry): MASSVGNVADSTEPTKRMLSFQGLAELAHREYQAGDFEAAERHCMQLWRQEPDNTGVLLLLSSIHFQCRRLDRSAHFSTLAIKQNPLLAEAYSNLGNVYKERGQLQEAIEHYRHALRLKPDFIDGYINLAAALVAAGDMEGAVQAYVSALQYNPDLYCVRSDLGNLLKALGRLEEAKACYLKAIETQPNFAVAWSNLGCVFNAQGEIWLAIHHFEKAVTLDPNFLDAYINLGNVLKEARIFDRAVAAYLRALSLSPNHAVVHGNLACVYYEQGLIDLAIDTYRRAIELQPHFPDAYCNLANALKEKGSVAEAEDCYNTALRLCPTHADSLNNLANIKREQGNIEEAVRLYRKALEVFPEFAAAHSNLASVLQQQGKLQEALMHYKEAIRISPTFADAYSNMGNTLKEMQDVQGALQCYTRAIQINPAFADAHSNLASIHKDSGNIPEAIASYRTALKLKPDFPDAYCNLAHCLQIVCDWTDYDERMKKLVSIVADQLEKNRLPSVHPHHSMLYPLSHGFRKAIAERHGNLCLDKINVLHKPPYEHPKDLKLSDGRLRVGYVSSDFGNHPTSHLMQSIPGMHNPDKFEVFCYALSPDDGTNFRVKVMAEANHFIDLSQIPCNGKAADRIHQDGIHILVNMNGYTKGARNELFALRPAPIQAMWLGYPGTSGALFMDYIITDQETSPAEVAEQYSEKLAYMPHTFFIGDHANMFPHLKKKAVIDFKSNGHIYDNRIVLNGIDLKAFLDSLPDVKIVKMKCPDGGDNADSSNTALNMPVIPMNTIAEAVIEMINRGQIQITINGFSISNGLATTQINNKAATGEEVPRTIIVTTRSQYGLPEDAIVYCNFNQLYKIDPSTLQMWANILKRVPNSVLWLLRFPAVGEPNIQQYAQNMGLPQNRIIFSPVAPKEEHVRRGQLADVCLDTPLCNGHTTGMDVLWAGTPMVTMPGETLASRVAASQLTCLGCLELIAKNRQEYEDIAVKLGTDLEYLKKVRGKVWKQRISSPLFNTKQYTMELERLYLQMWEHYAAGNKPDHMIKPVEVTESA
In words: Inhibition of human OGT using [3H]-UDP-GlcNAc as donor and recombinant nup2 as acceptor by liquid scintillation counting analysis.

Data set [2] addresses T2, UDP-N-acetylglucosamine--peptide N-acetylglucosaminyltransferase 110 kDa subunit (Homo sapiens) (UniProt O15294).
T2 sequence (whole entry): T1 sequence (O15294 whole entry)
In words: Inhibition of OGT in human MCF7 cells assessed as decrease in intracellular O-GlcNAcylated protein level up to 500 uM after 24 to 48 hrs by immunoblot analysis. It counts as cell-based.

In data set [3] the target is T2, UDP-N-acetylglucosamine--peptide N-acetylglucosaminyltransferase 110 kDa subunit (Homo sapiens). In words: Inhibition of human OGT using [3H]-UDP-GlcNAc as donor and recombinant nup2 as acceptor at 50 uM by liquid scintillation counting analysis.
Data set [4] can be described thus: Permeability across POPC liposomes by out-in method. It counts as ADME.
The nature of data set [5]: Permeability across POPC liposomes by in-out method. It counts as ADME.
The target in data set [6] is T2, UDP-N-acetylglucosamine--peptide N-acetylglucosaminyltransferase 110 kDa subunit (Homo sapiens). In words: Inhibition of OGT in human MCF10A cells assessed as decrease in intracellular O-GlcNAcylated protein level up to 500 uM after 24 to 48 hrs by immunoblot analysis. In kind it is cell-based. As to conditions: MCF-10A.
For data set [7] the target is unchanged. In words: Inhibition of OGT in human HeLa cells assessed as decrease in intracellular O-GlcNAcylated protein level up to 500 uM after 24 to 48 hrs by immunoblot analysis. It counts as cell-based.
Data set [8] has as its target T1, UDP-N-acetylglucosamine--peptide N-acetylglucosaminyltransferase 110 kDa subunit. In words: Inhibition of human OGT using [3H]-UDP-GlcNAc as donor and recombinant nup2 as acceptor by Dixon plot analysis.

`O=c1ccn([C@@H]2O[C@H](Cn3cc(-c4cccc(-c5cn([C@@H]6O[C@H](CO)[C@@H](O)[C@H](O)[C@H]6O)nn5)n4)nn3)[C@@H](O)[C@H]2O)c(=O)[nH]1`: the IC50 in data set [1] turned out to be 1600 µM. Further, in data set [2], the inhibition result was “inactive”. Besides, the inhibition in data set [3] worked out at 13.3%.

Take `O=C(NC[C@H]1O[C@@H](n2ccc(=O)[nH]c2=O)[C@H](O)[C@@H]1O)c1cccc(CO[C@@H]2O[C@H](CO)[C@@H](O)[C@H](O)[C@H]2O)n1`: the permeability entry in data set [4] and in data set [5] was “impermeable” throughout.

Turning to `O=C(N[C@@H]1O[C@H](CO)[C@@H](O)[C@H](O)[C@H]1O)c1cccc(Cc2cn(C[C@H]3O[C@@H](n4ccc(=O)[nH]c4=O)[C@H](O)[C@@H]3O)nn2)n1`, in data set [1], the IC50 was 340 µM. Moreover, the inhibition result in data set [2], in data set [6] and in data set [7] was “inactive” in each case. The permeability result in data set [4] and in data set [5] was “impermeable” in each case. Moreover, the inhibition in data set [3] worked out at 18%. Also, the Ki in data set [8] worked out at 420 µM.

For `O=C(Oc1ccccc1)n1c(=O)oc2ccc(Cl)cc21`, the IC50 in data set [1] was determined as 10 µM.

For `CC(=O)N[C@@H]1[C@@H](O)[C@H](O)[C@@H](CO)O[C@H]1n1cc(-c2cccc(-c3cn(C[C@H]4O[C@@H](n5ccc(=O)[nH]c5=O)[C@H](O)[C@@H]4O)nn3)n2)nn1`, the inhibition entry in data set [2] is “inactive”. Moreover, the inhibition in data set [3] came to 6.7%.

Regarding `O=C(NC[C@H]1O[C@@H](n2ccc(=O)[nH]c2=O)[C@H](O)[C@@H]1O)c1cccc(-c2cn([C@@H]3O[C@H](CO)[C@@H](O)[C@H](O)[C@H]3O)nn2)n1`, in data set [2], the inhibition result is “inactive”. In data set [3], the inhibition worked out at 4.2%.

As for `CC(=O)N[C@@H]1[C@@H](O)[C@H](O)[C@@H](CO)O[C@H]1n1cc(-c2cccc(C(=O)NC[C@H]3O[C@@H](n4ccc(=O)[nH]c4=O)[C@H](O)[C@@H]3O)n2)nn1`, the inhibition entry in data set [2] is “inactive”. In data set [3], the inhibition is 9.7%.

As to `CC(=O)N[C@@H]1[C@@H](O)[C@H](O)[C@@H](CO)S[C@@H]1OP(=O)(O)OP(=O)(O)OC[C@H]1O[C@@H](n2ccc(=O)[nH]c2=O)[C@H](O)[C@@H]1O`, in data set [8], the Ki is 8 µM.

Take `CC(=O)N[C@@H]1[C@@H](O)[C@H](O)[C@@H](CO)O[C@@H]1SP(=O)(O)OP(=O)(O)OC[C@H]1O[C@@H](n2ccc(=O)[nH]c2=O)[C@H](O)[C@@H]1O`: the Ki in data set [8] amounted to 93 µM.

In the case of `CC(=O)N[C@@H]1[C@@H](O)[C@H](O)[C@@H](CO)O[C@H]1NC(=O)c1cccc(Cc2cn(C[C@H]3O[C@@H](n4ccc(=O)[nH]c4=O)[C@H](O)[C@@H]3O)nn2)n1`, in data set [2], the inhibition entry was “inactive”. Further, in data set [3], the inhibition worked out at 3%.

With `O=C(NC[C@H]1O[C@@H](n2ccc(=O)[nH]c2=O)[C@H](O)[C@@H]1O)c1cccc(Br)n1`, in data set [2], the inhibition entry is “inactive”. In addition, the inhibition in data set [3] was found to be 7.6%.

`O=c1ccn([C@@H]2O[C@H](Cn3cc(-c4cccc(Br)n4)nn3)[C@@H](O)[C@H]2O)c(=O)[nH]1`: the half-inhibitory concentration (IC50) in data set [1] came to 710 µM. For the same molecule, in data set [3], the inhibition worked out at 15.5%.
